In the test the test system is glucocorticoid receptor function. Nature of the test: one or more of the above assays (GR binding and glucocorticoid receptor cell assays: aromatase, IL-6, TAT, MMTV-Luc, IL-8, ICAM-Luc). The test is classed as cell-based. As to conditions: assay not specified per compound. How it is done:
B. Glucocorticoid Receptor Cell Assays
1. Induction of Aromatase in Fibroblasts (Cell Assay for Transactivation)
Dexamethasone, a synthetic ligand to the glucocorticoid receptor (GR), induces expression of aromatase in human foreskin fibroblast cells. The activity of aromatase is measured by the conversion of testosterone to estradiol in culture media.
On the day of the experiment, the media in the wells is replaced with fresh media. Cells are treated with test compounds to final concentrations of 10^−5 M to 10^−8 M, and testosterone to a final concentration of 300 ng/mL. Each well has a total volume of 100 μL. Samples are made in duplicates. Control wells include: (a) wells that receive testosterone only, and (b) wells that receive testosterone plus 2 μM of dexamethasone to provide maximum induction of aromatase. Plates are incubated at 37° C. overnight (15 to 18 hours), and supernatants are harvested at the end of incubation. […] The amount of estradiol is inversely proportional to the ELISA signals in each well. The extent of aromatase induction by test compounds is expressed as a relative percentage to dexamethasone. EC50 values of test compounds are derived by non-linear curve fitting.
2. Inhibition of IL-6 Production in Fibroblasts (Cell Assay for Transrepression)
Human foreskin fibroblast cells produce IL-6 in response to stimulation by proinflammatory cytokine IL-1.
On the next day, media in the wells is replaced with fresh media. Cells are treated with IL-1 (rhIL-1α, R&D Systems Cat. No. 200-LA) to a final concentration of 1 ng/mL, and with test compounds to final concentrations of 10^−5 M to 10^−8 M, in a total volume of 200 μL per well. Samples are done in duplicates. […] Positive control wells receive IL-1 only and represent maximum (or 100%) amount of IL-6 production. Plates are incubated at 37° C. overnight (15 to 18 hours), and supernatants are harvested at the end of incubation. IL-6 levels in the supernatants are determined by the ELISA kits for IL-6 (MedSystems Diagnostics GmbH, Vienna, Austria, Cat. No. BMS213TEN) according to manufacture's instructions. The extent of inhibition of IL-6 by test compounds is expressed in percentage relative to positive controls. IC50 values of test compounds are derived by non-linear curve fitting.
Evaluation of agonist or antagonist activity of compounds binding to the glucocorticoid receptor may be determined by any of the assays.
3. Modulation of Tyrosine Aminotransferase (TAT) Induction in Rat Hepatoma Cells
Testing of compounds for agonist or antagonist activity in induction of tyrosine aminotransferase (TAT) in rat hepatoma cells.
H4-II-E-C3 cells were incubated overnight in 96 well plates (20,000 cells/100 μL/well) in MEM medium containing 10% heat inactivated FBS and 1% nonessential amino acids. On the next day, cells were stimulated with the indicated concentrations of dexamethasone or test compound (dissolved in DMSO, final DMSO concentration 0.2%) for 18 hours. Control cells were treated with 0.2% DMSO. After 18 hours, the cells were lysed in a buffer containing 0.1% Triton X-100 and the TAT activity was measured in a photometric assay using tyrosine and alpha-ketoglutarate as substrates.
For measuring antagonist activity, the hepatoma cells were pre-stimulated by addition of dexamethasone (concentration ranges from 3×10^−9 M to 3×10^−8 M) shortly before the test compound was applied to the cells.
4. Modulation of MMTV-Luc Induction in HeLa Cells
Testing of compounds for agonist or antagonist activity in stimulation of MMTV-(mouse mammary tumor virus) promoter in HeLa cells.
Cells were cultured overnight in DMEM medium without phenol red, supplemented with 3% CCS (charcoal treated calf serum) and then transferred to 96 well plates (15,000 cells/100 μL/well).

Consider `COc1ccc(C)cc1C(C)(C)CC(O)(Cc1cc2nc(N3CCCC3)ncc2[nH]1)C(F)(F)F` (stereo not shown) [1,1,1-Trifluoro-4-(2-methoxy-5-methylphenyl)-4-methyl-2-(2-pyrrolidin-1-yl-5H-pyrrolo[3,2-d]pyrimidin-6-ylmethyl)pentan-2-ol], for which the “activity as agonists of the glucocorticoid receptor function in one or more of the above assays” value (shortened to “activity as agonists”) was “potent agonists”. Next, `COc1ccc(-c2cccc3ccccc23)cc1C(C)(C)CC(O)(Cc1cc2cc(N3CCOCC3)ncc2[nH]1)C(F)(F)F` (stereo not shown) [1,1,1-Trifluoro-4-(2-methoxy-5-naphthalen-1-ylphenyl)-4-methyl-2-(5-morpholin-4-yl-1H-pyrrolo[2,3-c]pyridin-2-ylmethyl)pentan-2-ol]: “potent agonists”; `COc1ccc(-c2cccnc2)cc1C(C)(C)CC(O)(Cc1cc2ccncc2[nH]1)C(F)(F)F` (stereo not shown) [1,1,1-Trifluoro-4-(2-methoxy-5-pyridin-3-ylphenyl)-4-methyl-2-(1H-pyrrolo[2,3-c]pyridin-2-ylmethyl)pentan-2-ol]: “potent agonists”. As to `COc1ccc(-c2cccnc2)cc1C(C)(C)CC(O)(Cc1cc2cnccc2[nH]1)C(F)(F)F` (stereo not shown) [1,1,1-Trifluoro-4-(2-methoxy-5-pyridin-3-ylphenyl)-4-methyl-2-(1H-pyrrolo[3,2-c]pyridin-2-ylmethyl)pentan-2-ol], the “activity as agonists” value is on record as “potent agonists”. Turning to `COc1ccc(-c2cccnc2)cc1C(C)(C)CC(O)(Cc1[nH]c2cnccc2c1C)C(F)(F)F` (stereo not shown) [1,1,1-Trifluoro-4-(2-methoxy-5-pyridin-3-ylphenyl)-4-methyl-2-(3-methyl-1H-pyrrolo[2,3-c]pyridin-2-ylmethyl)pentan-2-ol], the “activity as agonists” value was “potent agonists”. With `COc1ccc(-c2cccnc2)cc1C(C)(C)CC(O)(Cc1cc2c(C)cncc2[nH]1)C(F)(F)F` (stereo not shown) [1,1,1-Trifluoro-4-(2-methoxy-5-pyridin-3-ylphenyl)-4-methyl-2-(4-methyl-1H-pyrrolo[2,3-c]pyridin-2-ylmethyl)pentan-2-ol] the entry was “potent agonists”; with `COc1ccc(-c2cccnc2)cc1C(C)(C)CC(O)(Cc1cc2cc(Oc3ccccc3)ncc2[nH]1)C(F)(F)F` (stereo not shown) [1,1,1-Trifluoro-4-(2-methoxy-5-pyridin-3-ylphenyl)-4-methyl-2-(5-phenoxy-1H-pyrrolo[2,3-c]pyridin-2-ylmethyl)pentan-2-ol], “potent agonists”. Next, `COc1ccc(-c2cncnc2)cc1C(C)(C)CC(O)(Cc1cc2ccncc2[nH]1)C(F)(F)F` (stereo not shown) [1,1,1-Trifluoro-4-(2-methoxy-5-pyrimidin-5-ylphenyl)-4-methyl-2-(1H-pyrrolo[2,3-c]pyridin-2-ylmethyl)pentan-2-ol]: “potent agonists”; `COc1ccc(-c2cncnc2)cc1C(C)(C)CC(O)(Cc1cc2cnccc2[nH]1)C(F)(F)F` (stereo not shown) [1,1,1-Trifluoro-4-(2-methoxy-5-pyrimidin-5-ylphenyl)-4-methyl-2-(1H-pyrrolo[3,2-c]pyridin-2-ylmethyl)pentan-2-ol]: “potent agonists”; `COc1ccc(-c2ccsc2)cc1C(C)(C)CC(O)(Cc1cc2ccncc2[nH]1)C(F)(F)F` (stereo not shown) [1,1,1-Trifluoro-4-(2-methoxy-5-thiophen-3-ylphenyl)-4-methyl-2-(1H-pyrrolo[2,3-c]pyridin-2-ylmethyl)pentan-2-ol]: “potent agonists”.

`COc1ccc(-c2ccsc2)cc1C(C)(C)CC(O)(Cc1cc2c(C)nccc2[nH]1)C(F)(F)F` (stereo not shown) [1,1,1-Trifluoro-4-(2-methoxy-5-thiophen-3-ylphenyl)-4-methyl-2-(4-methyl-1H-pyrrolo[3,2-c]pyridin-2-ylmethyl)pentan-2-ol]: the “activity as agonists” value is listed as “potent agonists”. With `CC(C)Oc1cc2cc(CC(O)(CC(C)(C)c3cccc(F)c3)C(F)(F)F)[nH]c2cn1` (stereo not shown) [1,1,1-Trifluoro-4-(3-fluorophenyl)-2-(5-isopropoxy-1H-pyrrolo[2,3-c]pyridin-2-ylmethyl)-4-methylpentan-2-ol] the entry was “potent agonists”. With `CC(C)(CC(O)(Cc1cc2cc(-c3ccc(F)cc3)ncc2[nH]1)C(F)(F)F)c1cccc(F)c1` (stereo not shown) [1,1,1-Trifluoro-4-(3-fluorophenyl)-2-[5-(4-fluorophenyl)-1H-pyrrolo[2,3-c]pyridin-2-ylmethyl]-4-methylpentan-2-ol] the entry was “potent agonists”; with `CC(C)(CC(O)(Cc1cc2nc(-c3ccccc3)ncc2[nH]1)C(F)(F)F)c1cccc(F)c1` (stereo not shown) [1,1,1-Trifluoro-4-(3-fluorophenyl)-4-methyl-2-(2-phenyl-5H-pyrrolo[3,2-d]pyrimidin-6-ylmethyl)pentan-2-ol], “potent agonists”; with `Cc1c(CC(O)(CC(C)(C)c2cccc(F)c2)C(F)(F)F)[nH]c2cnccc12` (stereo not shown) [1,1,1-Trifluoro-4-(3-fluorophenyl)-4-methyl-2-(3-methyl-1H-pyrrolo[2,3-c]pyridin-2-ylmethyl)pentan-2-ol], “potent agonists”. Next, `CC(C)(CC(O)(Cc1cc2cc(-c3ccccc3)nnc2[nH]1)C(F)(F)F)c1cccc(F)c1` (stereo not shown) [1,1,1-Trifluoro-4-(3-fluorophenyl)-4-methyl-2-(3-phenyl-7H-pyrrolo[2,3-c]pyridazin-6-ylmethyl)pentan-2-ol]: “potent agonists”; `Cc1cncc2[nH]c(CC(O)(CC(C)(C)c3cccc(F)c3)C(F)(F)F)cc12` (stereo not shown) [1,1,1-Trifluoro-4-(3-fluorophenyl)-4-methyl-2-(4-methyl-1H-pyrrolo[2,3-c]pyridin-2-ylmethyl)pentan-2-ol]: “potent agonists”. As to `CC(C)(CC(O)(Cc1cc2cc(N3CCOCC3)ncc2[nH]1)C(F)(F)F)c1cccc(F)c1` (stereo not shown) [1,1,1-Trifluoro-4-(3-fluorophenyl)-4-methyl-2-(5-morpholin-4-yl-1H-pyrrolo[2,3-c]pyridin-2-ylmethyl)pentan-2-ol], the “activity as agonists” value is given as “potent agonists”. With `CC(C)(CC(O)(Cc1cc2cc(N3CCCCC3)ncc2[nH]1)C(F)(F)F)c1cccc(F)c1` (stereo not shown) [1,1,1-Trifluoro-4-(3-fluorophenyl)-4-methyl-2-(5-piperidin-1-yl-1H-pyrrolo[2,3-c]pyridin-2-ylmethyl)pentan-2-ol] the entry was “potent agonists”.

Consider `COc1cc(F)ccc1C(C)(C)CC(O)(Cc1[nH]c2cnccc2c1C)C(F)(F)F` (stereo not shown) [1,1,1-Trifluoro-4-(4-fluoro-2-methoxyphenyl)-4-methyl-2-(3-methyl-1H-pyrrolo[2,3-c]pyridin-2-ylmethyl)pentan-2-ol], for which the “activity as agonists” value was “potent agonists”. Take `COc1cc(F)ccc1C(C)(C)CC(O)(Cc1cc2c(C)cncc2[nH]1)C(F)(F)F` (stereo not shown) [1,1,1-Trifluoro-4-(4-fluoro-2-methoxyphenyl)-4-methyl-2-(4-methyl-1H-pyrrolo[2,3-c]pyridin-2-ylmethyl)pentan-2-ol]: the “activity as agonists” value is on record as “potent agonists”. Take `COc1cc(F)ccc1C(C)(C)CC(O)(Cc1cc2c(C)nccc2[nH]1)C(F)(F)F` (stereo not shown) [1,1,1-Trifluoro-4-(4-fluoro-2-methoxyphenyl)-4-methyl-2-(4-methyl-1H-pyrrolo[3,2-c]pyridin-2-ylmethyl)pentan-2-ol]: the “activity as agonists” value is “potent agonists”.

Source of the values: US8741897B2, “Glucocorticoid mimetics, methods of making them, pharmaceutical compositions and uses thereof” (Boehringer Ingelheim Pharmaceuticals Inc., priority 2003, dated 2014).
